# Columns and labels:
# [1] = molecular target: T1, Potassium voltage-gated channel subfamily KQT member 2 (Homo sapiens, UniProt O43526); experiment: Channel opening activity at KCNQ2 (unknown origin) expressed in CHO cells after 10 mins by atomic absorption spectrophotometry-based Rb+ flow assay; format: cell-based
# [2] = Ratio of drug uptake in Kunming mouse brain to plasma at 1.5 mg/kg, iv measured after 30 mins by LC/MS/MS analysis; format: ADME, organism-based; settings: read-out: BPR
# [3] = Drug uptake in Kunming mouse brain at 1.5 mg/kg, iv measured after 5 mins by LC/MS/MS analysis; format: ADME, organism-based; settings: read-out: Drug uptake
# [4] = molecular target: T1, Potassium voltage-gated channel subfamily KQT member 2; experiment: Channel opening activity at KCNQ2 (unknown origin) expressed in CHO cells assessed as conductivity (I/I0 ratio) at 10 uM by electrophysiological patch-clamp test; format: cell-based
# [5] = Ratio of drug uptake in Kunming mouse brain to plasma at 15 mg/kg, ig measured after 5 mins by LC/MS/MS analysis; format: ADME, organism-based; settings: po, read-out: BPR
# [6] = Drug uptake in Kunming mouse brain at 1.5 mg/kg, iv measured after 2 hrs by LC/MS/MS analysis; format: ADME, organism-based; settings: read-out: Drug uptake
# [7] = Clearance in Sprague-Dawley rat at 1 mg/kg, iv by LC/MS/MS analysis; format: ADME, organism-based; settings: in vivo
# [8] = test system: Rattus norvegicus; experiment: Neurotoxicity in Sprague-Dawley rat at 1 mg/kg, ip measured after 30 mins by rotating-rod test; format: toxicity, organism-based; settings: in vivo, 0.5 h
# [9] = Drug uptake in Kunming mouse plasma at 15 mg/kg, ig measured after 2 hrs by LC/MS/MS analysis; format: ADME, organism-based; settings: po
# [10] = Tmax in Sprague-Dawley rat at 1 mg/kg, iv by LC/MS/MS analysis; format: ADME, organism-based; settings: in vivo
# [11] = test system: Mus musculus; experiment: Anticonvulsant activity in maximal electroshock induced Kunming mouse assessed as epilepsy incidence at 5 mg/kg, ip measured after 30 mins; format: functional
# [12] = Drug uptake in Kunming mouse plasma at 15 mg/kg, ig measured after 30 mins by LC/MS/MS analysis; format: ADME, organism-based; settings: po
# [13] = Cmax in Sprague-Dawley rat at 1 mg/kg, iv by LC/MS/MS analysis; format: ADME, organism-based; design: dose 1 mg/kg, route intravenous; settings: in vivo
# [14] = Drug uptake in Kunming mouse plasma at 1.5 mg/kg, iv measured after 2 hrs by LC/MS/MS analysis; format: ADME, organism-based
# [15] = test system: Rattus norvegicus; experiment: Neurotoxicity in Sprague-Dawley rat at 0.3 mg/kg, ip measured after 30 mins by rotating-rod test; format: toxicity, organism-based; settings: in vivo, 0.5 h
# [16] = Drug uptake in Kunming mouse brain at 15 mg/kg, ig measured after 2 hrs by LC/MS/MS analysis; format: ADME, organism-based; settings: po, read-out: Drug uptake
# [17] = Ratio of drug uptake in Kunming mouse brain to plasma at 15 mg/kg, ig measured after 30 mins by LC/MS/MS analysis; format: ADME, organism-based; settings: po, read-out: BPR
# [18] = Half life in Sprague-Dawley rat at 1 mg/kg, iv by LC/MS/MS analysis; format: ADME, organism-based; settings: in vivo
# [19] = Drug uptake in Kunming mouse plasma at 1.5 mg/kg, iv measured after 5 mins by LC/MS/MS analysis; format: ADME, organism-based
# [20] = Ratio of drug uptake in Kunming mouse brain to plasma at 1.5 mg/kg, iv measured after 5 mins by LC/MS/MS analysis; format: ADME, organism-based; settings: read-out: BPR
# [21] = test system: Rattus norvegicus; experiment: Neurotoxicity in Sprague-Dawley rat at 5 mg/kg, ip measured after 30 mins by rotating-rod test; format: toxicity, organism-based; settings: in vivo, 0.5 h
# [22] = Drug uptake in Kunming mouse brain at 15 mg/kg, ig measured after 30 mins by LC/MS/MS analysis; format: ADME, organism-based; settings: po, read-out: Drug uptake
# [23] = test system: Mus musculus; experiment: Anticonvulsant activity in maximal electroshock induced Kunming mouse assessed as epilepsy incidence at 0.3 mg/kg, ip measured after 30 mins; format: functional
# [24] = Ratio of drug uptake in Kunming mouse brain to plasma at 1.5 mg/kg, iv measured after 2 hrs by LC/MS/MS analysis; format: ADME, organism-based; settings: read-out: BPR
# [25] = molecular target: T1, Potassium voltage-gated channel subfamily KQT member 2; experiment: Channel opening activity at KCNQ2 (unknown origin) expressed in CHO cells at 10 uM incubated for 20 mins in dark measured every 2 secs for 10 secs by fluorescence-based thallium influx assay relative to control; format: cell-based
# [26] = test system: Mus musculus; experiment: Anticonvulsant activity in maximal electroshock induced Kunming mouse assessed as epilepsy incidence at 1 mg/kg, ip measured after 30 mins; format: functional
# [27] = test system: Mus musculus; experiment: Anticonvulsant activity in maximal electroshock induced Kunming mouse assessed as epilepsy incidence at 3 mg/kg, ip measured after 30 mins; format: functional
# [28] = Drug uptake in Kunming mouse brain at 1.5 mg/kg, iv measured after 30 mins by LC/MS/MS analysis; format: ADME, organism-based; settings: read-out: Drug uptake
# [29] = molecular target: T1, Potassium voltage-gated channel subfamily KQT member 2; experiment: Channel opening activity at KCNQ2 (unknown origin) expressed in CHO cells assessed as change in half activation potential at 10 uM by electrophysiological patch-clamp test; format: cell-based
# [30] = MRTlast in Sprague-Dawley rat at 1 mg/kg, iv by LC/MS/MS analysis; format: ADME, organism-based; settings: in vivo
# [31] = Drug uptake in Kunming mouse plasma at 1.5 mg/kg, iv measured after 30 mins by LC/MS/MS analysis; format: ADME, organism-based
# [32] = molecular target: T1, Potassium voltage-gated channel subfamily KQT member 2; experiment: Potency index, ratio of retigabine EC50 to compound EC50 for channel opening activity at KCNQ2 (unknown origin) expressed in CHO cells by atomic absorption spectrophotometry-based Rb+ flow assay; format: cell-based
# [33] = Drug uptake in Kunming mouse plasma at 15 mg/kg, ig measured after 5 mins by LC/MS/MS analysis; format: ADME, organism-based; settings: po
# [34] = Drug uptake in Kunming mouse brain at 15 mg/kg, ig measured after 5 mins by LC/MS/MS analysis; format: ADME, organism-based; settings: po, read-out: Drug uptake
# [35] = test system: Rattus norvegicus; experiment: Neurotoxicity in Sprague-Dawley rat at 3 mg/kg, ip measured after 30 mins by rotating-rod test; format: toxicity, organism-based; settings: in vivo, 0.5 h
# [36] = Ratio of drug uptake in Kunming mouse brain to plasma at 15 mg/kg, ig measured after 2 hrs by LC/MS/MS analysis; format: ADME, organism-based; settings: po, read-out: BPR
# [37] = test system: Mus musculus; experiment: Anticonvulsant activity in ip dosed maximal electroshock induced Kunming mouse assessed as suppression of hind legs rigidity measured after 30 mins; format: functional, organism-based
# [38] = AUClast in Sprague-Dawley rat at 1 mg/kg, iv by LC/MS/MS analysis; format: ADME, organism-based; design: dose 1 mg/kg, route intravenous, time 0 - last; settings: in vivo
# [39] = Apparent volume of distribution in Sprague-Dawley rat at 1 mg/kg, iv by LC/MS/MS analysis; format: ADME, organism-based; settings: in vivo, read-out: Vz
# [40] = test system: Mus musculus; experiment: Anticonvulsant activity in maximal electroshock induced Kunming mouse assessed as epilepsy incidence at 25 mg/kg, ip measured after 30 mins; format: functional
# [41] = test system: Rattus norvegicus; experiment: Neurotoxicity in Sprague-Dawley rat at 25 mg/kg, ip measured after 30 mins by rotating-rod test; format: toxicity, organism-based; settings: in vivo, 0.5 h
# T1 sequence (O43526 whole entry): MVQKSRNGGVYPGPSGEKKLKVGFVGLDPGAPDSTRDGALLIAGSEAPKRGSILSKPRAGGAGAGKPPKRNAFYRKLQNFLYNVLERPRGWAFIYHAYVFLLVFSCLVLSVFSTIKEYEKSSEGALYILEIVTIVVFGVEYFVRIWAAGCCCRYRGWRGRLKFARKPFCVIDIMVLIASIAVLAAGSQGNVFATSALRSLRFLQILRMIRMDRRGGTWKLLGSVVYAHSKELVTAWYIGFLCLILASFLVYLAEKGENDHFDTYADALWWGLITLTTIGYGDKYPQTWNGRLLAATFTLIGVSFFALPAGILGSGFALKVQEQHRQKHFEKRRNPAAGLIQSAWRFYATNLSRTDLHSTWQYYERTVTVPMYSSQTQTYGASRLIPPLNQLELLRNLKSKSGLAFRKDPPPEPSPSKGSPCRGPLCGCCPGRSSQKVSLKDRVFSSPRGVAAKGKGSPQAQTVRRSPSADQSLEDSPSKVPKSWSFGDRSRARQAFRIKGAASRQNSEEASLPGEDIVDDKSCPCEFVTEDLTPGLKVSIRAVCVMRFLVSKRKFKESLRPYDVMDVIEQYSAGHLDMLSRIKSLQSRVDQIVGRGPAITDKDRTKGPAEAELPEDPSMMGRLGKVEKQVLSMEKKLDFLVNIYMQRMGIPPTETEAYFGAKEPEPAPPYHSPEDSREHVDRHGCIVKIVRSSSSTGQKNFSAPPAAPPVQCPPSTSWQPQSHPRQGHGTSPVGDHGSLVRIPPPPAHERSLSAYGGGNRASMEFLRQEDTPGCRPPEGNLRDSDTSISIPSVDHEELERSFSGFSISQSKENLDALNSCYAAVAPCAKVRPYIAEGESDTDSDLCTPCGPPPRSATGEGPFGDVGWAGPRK
smiles,measurement,setting,value
Cc1ccc2c(c1)CCCCN2c1cc(C)c(NC(=O)CC(C)(C)C)c(C)c1,EC50,[1],40 nM
Cc1cc(N2CCc3sccc3C2)cc(C)c1NC(=O)CC(C)(C)C,Kp at 0.5 h,[2],0.14
same,concentration at 5 min,[3],140 ng/g
same,Ratio,[4],1.63
same,Kp at 5 min,[5],0.12
same,concentration at 2 h,[6],1.27 ng/g
same,clearance,[7],23.6 mL/min/kg
same,Activity,[8],0%
same,concentration at 2 h,[9],52.9 ng/mL
same,Tmax,[10],1.8 min
same,Activity,[11],20%
same,concentration at 0.5 h,[12],243 ng/mL
same,Cmax,[13],1060 ng/mL
same,concentration at 2 h,[14],7.85 ng/mL
same,Activity,[15],0%
same,concentration at 2 h,[16],4.96 ng/g
same,Kp at 0.5 h,[17],0.12
same,half-life,[18],5.49 h
same,concentration at 5 min,[19],771 ng/mL
same,Kp at 5 min,[20],0.18
same,Activity,[21],0%
same,concentration at 0.5 h,[22],30 ng/g
same,Activity,[23],70%
same,Kp at 2 h,[24],0.16
same,Activity,[25],84.2%
same,Activity,[26],90%
same,Activity,[27],20%
same,concentration at 0.5 h,[28],19 ng/g
same,V1/2,[29],66.2 mV
same,MRT last,[30],2.17 h
same,concentration at 0.5 h,[31],137 ng/mL
same,Ratio EC50,[32],17
same,concentration at 5 min,[33],201 ng/mL
same,concentration at 5 min,[34],25 ng/g
same,Activity,[35],0%
same,Kp at 2 h,[36],0.09
same,EC50,[37],1.83 mg/kg
same,AUC(0-t),[38],687 ng·h/mL
same,EC50,[1],20 nM
same,Vd,[39],11.2 L/kg
Cc1cc(N2CCc3sc(C#N)cc3C2)cc(C)c1NC(=O)CC(C)(C)C,EC50,[1],290 nM
CCOC(=O)Nc1ccc(NCc2ccc(F)cc2)cc1N [EZOGABINE],Ratio,[4],2.12
same,Activity,[40],15%
same,Activity,[41],0%
same,V1/2,[29],40 mV
Cc1cc(N2CCCCc3cc(F)ccc32)cc(C)c1NC(=O)CC(C)(C)C,EC50,[1],250 nM
Cc1cc(N2CCCCc3cc(Cl)ccc32)cc(C)c1NC(=O)CC(C)(C)C,EC50,[1],140 nM
Cc1cc(N2CCCCc3cc(Br)ccc32)cc(C)c1NC(=O)CC(C)(C)C,EC50,[1],1080 nM
Cc1cc2c(s1)CN(c1cc(C)c(NC(=O)CC(C)(C)C)c(C)c1)CC2,EC50,[1],30 nM
Cc1csc2c1CN(c1cc(C)c(NC(=O)CC(C)(C)C)c(C)c1)CC2,EC50,[1],300 nM
Cc1cc(N2CCc3sc(C(F)(F)F)cc3C2)cc(C)c1NC(=O)CC(C)(C)C,EC50,[1],120 nM
Cc1cc(N2CCc3cc(F)sc3C2)cc(C)c1NC(=O)CC(C)(C)C,EC50,[1],2930 nM
Cc1cc(N2CCc3ccsc3C2)cc(C)c1NC(=O)CC(C)(C)C,Ratio,[4],0.67
same,Activity,[25],64.8%
same,V1/2,[29],53.3 mV
same,EC50,[1],20 nM
Cc1cc(N2CCn3cccc3C2)cc(C)c1NC(=O)CC(C)(C)C,Ratio,[4],1.65
same,Activity,[25],4.87%
same,V1/2,[29],46.1 mV
same,EC50,[1],34 nM

# Source: ChEMBL document CHEMBL4229491, “Design, synthesis and evaluation of novel N-phenylbutanamide derivatives as KCNQ openers for the treatment of epilepsy” (Bioorg Med Chem Lett, 2018)
